Laboratory results published in patent US20230165875A1, “METHYLTHIONINIUM COMPOUNDS FOR USE IN THE TREATMENT OF COVID-19” (priority 2020, published 2023).

Assays:
[1] = test system: SARS-CoV2; test: Virucidal activity / neutralising viral toxicity in Vero-E6 cell assay in the dark (Cagno et al 2020 data); type: cell-based
[2] = design: species or system rats; settings: rat, in vivo, po, 10 mg/kg
Procedure: A further whole body autoradiography study rats compared the distribution of LMT-associated radioactivity in brain, lung and heart following oral dosing at 10 mg/kg. […] The ratio specific for LMT in lung is therefore unknown. It is possible to relate plasma levels determined in a large clinical population (Schelter et al., 2019) to expected tissue levels of LMT at steady state across a wide dosing range of 8-250 mg/day. However, this depends critically on the tissue:plasma ratio for specifically affected tissues such a lung.

[3] = test system: mitochondrial function; settings: in vitro and in vivo; cited from earlier work
[4] = Clinical safety / cardiotoxicity of LMTM; type: in vivo, human
Procedure: Therefore, doses up to 250 mg/day could be given safely for treatment of COVID-19 patients.

[5] = AD patients; cited from earlier work
[6] = Oxygen saturation and metHb in clinical trial patients after LMT dosing; type: in vivo, human
Procedure: The present inventors have used data available for patients participating in clinical trials to determine whether LMT enhances oxygen saturation of blood. Data were available for 18 subjects with oxygen saturation <94% at baseline (lower limit of normal range is 95%). Oxygen saturation levels were compared pre-dose and after 4 hrs in the clinic following administration of a single doses of LMT at 4 mg and ˜100mg (mean of 75, 100, 125 mg; FIG. 8).
In order to understand this effect further the inventors investigated whether the low oxygen saturation in these patients is due to elevation in metHb levels. There was no difference in metHb levels at baseline between subjects with low SpO2 and those with SpO2 levels in the normal range.

[7] = test system: SARS-CoV-2; settings: Vero cells, 48 hrs; read-out: IC50, SARS-CoV-2 antiviral activity (viral replication); cited from earlier work

CN(C)c1ccc2c(c1)Sc1cc(N(C)C)ccc1N2 [LMT, hydromethylthionine]
potency as SARS-CoV-2 antiviral relative to hydroxychloroquine and remdesivir ([1]; assuming comparability of the assays): approximately 23 fold | ratio of heart and lung to brain (LMT-associated radioactivity, total MT) [2]: 2:1

CN(C)c1ccc2c(c1)Sc1cc(N(C)C)ccc1N2.CS(=O)(=O)O.CS(=O)(=O)O [LMTM, N,N,N′,N′-tetramethyl-10H-phenothiazine-3,7-diaminium bis(hydromethanesulfonate)]
mitochondrial function [3]: enhance mitochondrial function | safety across doses ([4]; 8-250 mg/day, three Phase 3 trials in over 2,000 patients with dementia): well established | cardiotoxicity ([4]; human, in vivo): does not have the cardiotoxicity | minimum effective dose (anti-dementia effects) [5]: 8 mg/day | optimally effective dose (anti-dementia effects) [5]: 16 mg/day | metHb levels ([6]; higher doses, over a period of time): systematically increases metHb levels | oxygen saturation of blood ([6]; subjects with oxygen saturation <94% at baseline, 4 hours after single dose of LMT at 4 mg and ~100 mg): significantly increased oxygen saturation

CCN(CCO)CCCC(C)Nc1ccnc2cc(Cl)ccc12 (centres unmarked) [hydroxychloroquine]
IC50 [7]: 720 nM

methylthionine [MT moiety]
IC50 ([1]; Vero cell assay, 20 hrs, calculated from Cagno et al. data): 32 nM
